Data set [1] can be described thus: Dog cassette dosing pharmacokinetics. Conditions: male, beagle, plasma, IV; for Vd: read-out: Vss; for half-life: read-out: t½ (converted). The class given is in vivo, beagle dogs. As for the experimental part:
Non-naïve male beagle dogs (8 months to 3 years of age, body weight 8-14 kg) sourced from Jiangsu Johnsen Bioresource CO. and/or Beijing Rixinkeji CO., LTD and/or Beijing Marshall Biotechnology CO., LTD were used in this study. All animals for IV administration had free access to food and water. The IV dose solution was prepared in 10% DMA/50% PG/40% HPβCD solution (40% w/v aqueous HPβCD) at a concentration of 0.2 mg/mL. Concentrations of IV dose was measured at the end of the study. PK parameters were calculated using the nominal dose values if the measured values were within 20% of the nominal values. Blood samples were collected by venipuncture of peripheral veins except the dosing vein at pre-dose, 5 15, 30 min, 1, 2, 4, 6, 8 and 24 h post-dose. Blood samples were centrifuged and resultant plasma was frozen for bioanalysis. Plasma samples were stored at −80° C. before analysis. Plasma samples were analyzed for compound concentrations using the LC/MS/MS method. Briefly, a 50 μL aliquot of each plasma sample was mixed with 100 μL of acetonitrile that contained an internal standard. The mixture was vortexed and centrifuged. Ten (10) μL of the resulting solution was injected onto a reverse-phase C18 column and the resultant peaks detected on a LC/MS/MS equipped with a turbo ionspray ionization source. Sample concentrations below the limit of quantification (BLQ) were treated as zero for PK calculations. PK parameters were estimated from individual animals using noncompartmental analysis of the concentration-time data (Phoenix WinNonLin software, version 64; Pharsight, Mountain View, CA). The elimination rate constant (k) was calculated as the absolute value of the slope of the linear regression of logarithm (log) of the concentration versus time for the last three data points of the concentration-time profiles. Apparent elimination half-life (t1/2) values were calculated as ln(2)/k. Area under the concentration-time curve (AUC) values were estimated using linear trapezoidal method. AUCt values were calculated from the dosing time to the last measurable concentration. AUC∞ values were calculated as the sum of the corresponding AUCt and the ratio of the last detectable concentration divided by k. Plasma clearance (CL) was calculated from Dose/AUC∞. Mean resident time extrapolated to infinity (MRT∞) was estimated by moment analysis. Vss was calculated from MRT∞×CL. Maximum concentration (Cmax) and time to reach Cmax (tmax) were recorded as observed. As this was a cross-over study, bioavailability was calculated dAUC∞,po/dAUC∞,iv×100% where dAUC was the dose normalized AUC value from the same animal given IV and PO dose. Data for compounds tested are provided in Table G. Compounds tested were prepared in accordance with the synthetic procedures described herein.

Data set [2] deals with bovine cardiac myofibrils. Briefly: Myofibril assay (ATPase activity of skinned bovine cardiac myofibrils, PK/LDH-coupled). The class given is biochemical. To be noted: inhibition of steady-state ATPase of bovine cardiac myofibrils; CaCl2 for 50% or 75% activation. The gist of the method:
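Steady-state ATPase of detergent-skinned bovine left-ventricular myofibrils (1 mg/mL), PK/LDH-coupled NADH read at 340 nm, in PIPES/MgCl2 buffer pH 6.8 with 50 μM ATP, 0.6 mM EGTA and CaCl2 set for 50% or 75% activation. Inhibition of activity measured.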

The target in a further data set is T1, CYP2D6 (Homo sapiens, UniProt P10635).
T1 construct: Pooled human microsomes and selective CYP probe substrates were used; from tissue; host or cells: pooled human liver microsomes
Description: Time-dependent inhibition of CYP2D6 in human liver microsomes. Conditions: for (% Activity NADPH T0)/(% Activity NADPH T30): fold change; for activity at 30 min, 25 µM / activity at 0 min, 25 µM / activity at 30 min, 50 µM / activity at 0 min, 50 µM: pooled human liver microsomes, human liver microsomes; for activity at 30 min, 25 µM / activity at 30 min, 50 µM: after 30 minutes incubation, read-out: % Activity NADPH T30; for activity at 0 min, 25 µM / activity at 0 min, 50 µM: time zero, read-out: % Activity NADPH T0. The class given is in vitro ADME. As for the experimental part:
An assessment of the time-dependent Inhibitory Potential of the test compounds against Principal Human Cytochrome P450 Isozymes using Human Liver Microsomes was also carried out using standard methods (Grimm et al, Drug Metab. Dispos., July; 37(7):1355-70. doi: 10.1124/dmd.109.026716, 2009). Pooled human microsomes and selective CYP probe substrates were used for in vitro assessment of test compounds at 25 and 50 μM as time-dependent inhibitors of […] human hepatic cytochrome P450 isozymes (CYP1A2, 2B6, 2C9, 2C19, 2D6, and 3A4). LC-MS/MS was used to quantify metabolite formation. The inhibition of each P450 enzyme in human liver microsomes was measured as the percentage decrease in the activity of marker metabolite formation as measured by LC-MS/MS compared to non-inhibited controls (=100% activity) at time zero and after 30 minutes incubation. The occurrence of any time dependent inhibition was then expressed as the fold change in enzyme activity at time zero relative to the activity after 30 minutes incubation.
A general note: Liver microsomes are a subcellular fraction often used to study metabolism.

A short description of data set [3]: Monkey cassette dosing pharmacokinetics. It is filed as in vivo. To be noted: IV; for clearance / Vd: male, plasma; for Vd: read-out: Vss.

As usually defined, the clearance is the volume of plasma or blood freed of the substance per unit of time.

T1 sequence (P10635 whole entry): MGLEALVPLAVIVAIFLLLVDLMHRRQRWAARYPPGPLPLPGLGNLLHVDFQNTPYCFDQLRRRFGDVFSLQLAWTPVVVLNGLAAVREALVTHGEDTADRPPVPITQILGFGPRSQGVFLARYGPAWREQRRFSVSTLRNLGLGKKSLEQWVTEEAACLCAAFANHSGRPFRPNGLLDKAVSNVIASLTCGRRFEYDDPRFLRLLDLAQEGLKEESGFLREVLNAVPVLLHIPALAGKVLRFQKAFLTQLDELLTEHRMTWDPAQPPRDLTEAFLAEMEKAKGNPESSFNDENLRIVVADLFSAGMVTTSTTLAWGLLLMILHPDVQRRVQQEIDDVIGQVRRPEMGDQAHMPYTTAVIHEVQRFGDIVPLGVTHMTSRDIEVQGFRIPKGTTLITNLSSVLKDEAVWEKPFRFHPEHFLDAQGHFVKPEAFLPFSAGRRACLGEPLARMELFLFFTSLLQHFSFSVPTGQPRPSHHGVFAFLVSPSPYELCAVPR

For the molecule `CC(C)N1CC(=O)N(Cc2ccc(C(F)(F)F)cc2)C2(CN(c3cccnn3)C2)C1=O` [Compound 13, 8-isopropyl-2-(pyridazin-3-yl)-5-(4-(trifluoromethyl)benzyl)-2,5,8-triazaspiro[3.5]nonane-6,9-dione], in data set [1], the clearance amounted to 11.5 mL/min/kg, the Vd is 3.72 L/kg and the half-life is 4.16 h. In addition, the “CDMF IC15” value in data set [2] stood at 2.0 µM. For the same molecule, at CYP2D6 (CYP2D6, 25 μM), the “(% Activity NADPH T0)/(% Activity NADPH T30)” value is listed as 1.0; the activity at 30 min, 25 µM is 100%; the activity at 0 min, 25 µM turned out to be 96%. Further, on CYP2D6 (CYP2D6, 50 μM), the “(% Activity NADPH T0)/(% Activity NADPH T30)” value came out at 1.4; the activity at 30 min, 50 µM came to 72%; the activity at 0 min, 50 µM is 98%. Also, in data set [3], the “t l/2” value amounted to 1.83 h, the clearance is 21.4 mL/min/kg and the Vd was 3.15 L/kg.
Regarding `C[C@H]1CC[C@H](N2CC(=O)N(Cc3ccc(Cl)cc3)C3(CN(C(N)=O)C3)C2=O)CC1` [Compound 18, 5-(4-chlorobenzyl)-8-((1r,4r)-4-methylcyclohexyl)-6,9-dioxo-2,5,8-triazaspiro[3.5]nonane-2-carboxamide], in data set [1], the clearance worked out at 7.07 mL/min/kg, the Vd turned out to be 4.29 L/kg and the half-life is 9.08 h. Moreover, the “CDMF IC15” value in data set [2] amounted to 1.2 µM. Also, at CYP2D6 (CYP2D6, 25 μM), the “(% Activity NADPH T0)/(% Activity NADPH T30)” value turned out to be 1.0; the activity at 30 min, 25 µM is 105%; the activity at 0 min, 25 µM was 103%. On CYP2D6 (CYP2D6, 50 μM), the “(% Activity NADPH T0)/(% Activity NADPH T30)” value was found to be 1.1; the activity at 30 min, 50 µM was 91%; the activity at 0 min, 50 µM turned out to be 104%. In addition, in data set [3], the “t l/2” value came out at 8.04 h, the clearance worked out at 12.5 mL/min/kg and the Vd turned out to be 10.2 L/kg.
In the case of `C[C@H]1CC[C@H](N2CC(=O)N(Cc3ccc(F)c(F)c3)C3(CN(C=O)C3)C2=O)CC1` [Compound 4, 5-(3,4-difluorobenzyl)-8-((1r,4r)-4-methylcyclohexyl)-6,9-dioxo-2,5,8-triazaspiro[3.5]nonane-2-carbaldehyde], the “CDMF IC15” value in data set [2] came out at 1.5 µM. The “(% Activity NADPH T0)/(% Activity NADPH T30)” value at CYP2D6 (CYP2D6, 25 μM) is reported as 1.3; on CYP2D6 (CYP2D6, 50 μM), 1.1; at CYP2D6 (CYP2D6, 50 μM, listed as compound 4), “no change in activity”. In data set [3], the “t l/2” value is given as 8.69 h.
As for `C[C@H]1CC[C@H](N2CC(=O)N(Cc3ccc(F)c(F)c3)C3(CN(C(N)=O)C3)C2=O)CC1` [Compound 5, 5-(3,4-difluorobenzyl)-8-((1r,4r)-4-methylcyclohexyl)-6,9-dioxo-2,5,8-triazaspiro[3.5]nonane-2-carboxamide], in data set [1], the clearance is 9.26 mL/min/kg, the Vd amounted to 6.17 L/kg and the half-life is 9.86 h. Also, the “CDMF IC15” value in data set [2] came out at 1.3 µM. Besides, at CYP2D6 (CYP2D6, 25 μM), the “(% Activity NADPH T0)/(% Activity NADPH T30)” value stood at 1.1; the activity at 30 min, 25 µM is 89%; the activity at 0 min, 25 µM was 98%. On CYP2D6 (CYP2D6, 50 μM), the “(% Activity NADPH T0)/(% Activity NADPH T30)” value was determined as 1.1; the activity at 30 min, 50 µM amounted to 84%; the activity at 0 min, 50 µM amounted to 94%. In addition, in data set [3], the “t l/2” value was determined as 8.2 h, the clearance worked out at 19 mL/min/kg and the Vd amounted to 10.2 L/kg.
In the case of `Cc1cc(CN2C(=O)CN([C@H]3CC[C@H](C)CC3)C(=O)C23CN(C(N)=O)C3)ccc1F` [Compound 6, 5-(4-fluoro-3-methylbenzyl)-8-((1r,4r)-4-methylcyclohexyl)-6,9-dioxo-2,5,8-triazaspiro[3.5]nonane-2-carboxamide], in data set [1], the clearance stood at 9.08 mL/min/kg, the Vd amounted to 3.98 L/kg and the half-life was 7.11 h. Also, in data set [2], the “CDMF IC15” value was found to be 1.4 µM. At CYP2D6 (CYP2D6, 25 μM), the “(% Activity NADPH T0)/(% Activity NADPH T30)” value came to 1.3; the activity at 30 min, 25 µM turned out to be 87%; the activity at 0 min, 25 µM stood at 112%. Further, at CYP2D6 (CYP2D6, 50 μM), the “(% Activity NADPH T0)/(% Activity NADPH T30)” value is given as 1.2; the activity at 30 min, 50 µM amounted to 92%; the activity at 0 min, 50 µM came out at 107%. Moreover, the “(% Activity NADPH T0)/(% Activity NADPH T30)” value at CYP2D6 (CYP2D6, 50 μM, listed as compound 6) is “no change in activity”. For the same molecule, in data set [3], the “t l/2” value is given as 8.07 h, the clearance worked out at 12.3 mL/min/kg and the Vd was found to be 6.29 L/kg.
As to `CC(C)N1CC(=O)N(Cc2ccc(Cl)c(F)c2)C2(CN(c3cccnn3)C2)C1=O` [Compound 8, 5-(4-chloro-3-fluorobenzyl)-8-isopropyl-2-(pyridazin-3-yl)-2,5,8-triazaspiro[3.5]nonane-6,9-dione], in data set [1], the clearance turned out to be 15.6 mL/min/kg, the Vd is 6.26 L/kg and the half-life is 5.66 h. Besides, the “CDMF IC15” value in data set [2] worked out at 1.3 µM. For the same molecule, on CYP2D6 (CYP2D6, 25 μM), the “(% Activity NADPH T0)/(% Activity NADPH T30)” value amounted to 0.9; the activity at 30 min, 25 µM came to 98%; the activity at 0 min, 25 µM is 92%. In addition, at CYP2D6 (CYP2D6, 50 μM), the “(% Activity NADPH T0)/(% Activity NADPH T30)” value came to 1.0; the activity at 30 min, 50 µM worked out at 91%; the activity at 0 min, 50 µM was 87%. Moreover, in data set [3], the “t l/2” value was 3.72 h, the clearance came to 20.2 mL/min/kg and the Vd was found to be 4.76 L/kg.
For `C[C@H]1CC[C@H](N2CC(=O)N(Cc3ccc(F)c(Cl)c3)C3(CN(C(N)=O)C3)C2=O)CC1` [Compound 7, 5-(3-chloro-4-fluorobenzyl)-8-((1r,4r)-4-methylcyclohexyl)-6,9-dioxo-2,5,8-triazaspiro[3.5]nonane-2-carboxamide], in data set [1], the clearance was determined as 9.22 mL/min/kg, the Vd was found to be 6.33 L/kg and the half-life is 10.9 h. Besides, the “CDMF IC15” value in data set [2] came out at 0.8 µM. In addition, on CYP2D6 (CYP2D6, 25 μM), the “(% Activity NADPH T0)/(% Activity NADPH T30)” value is 0.9; the activity at 30 min, 25 µM turned out to be 88%; the activity at 0 min, 25 µM was found to be 80%. Further, at CYP2D6 (CYP2D6, 50 μM), the “(% Activity NADPH T0)/(% Activity NADPH T30)” value is 0.9; the activity at 30 min, 50 µM was 95%; the activity at 0 min, 50 µM stood at 87%. For the same molecule, in data set [3], the “t l/2” value stood at 12.5 h, the clearance is 10.2 mL/min/kg and the Vd came to 9.12 L/kg.
